# Where two headings read alike, the source gives them in different places.
# How the values were obtained:
# [1] = Ames microplate format (MPF) assay, TA1537; conditions: Salmonella typhimurium
# Description: The Ames microplate format (MPF) mutagenicity assay (Xenometrix, Allschwil, Switzerland) was used to test KM-568 mutagenicity. Growth, exposure, and indicator media, positive control chemicals, and four Salmonella typhimurium strains TA98, TA100, TA1535 and TA1537 were included in the kit. TA100 and TA1535 strains detect base substitution mutations, whereas TA98 and TA1537 indicate frameshift mutations. The strains of bacteria included in a kit are in compliance with the Organization for Economic Cooperation and Development (OECD) 471 Guideline for Testing of Chemicals.
# The assay is a liquid microplate modification of the traditional Salmonella test. During the procedure, bacteria are exposed to different concentrations of a test compound for 90 min in a medium containing sufficient histidine to support cell divisions. Then, the cultures are diluted in a pH indicator medium lacking histidine and aliquoted into 48 wells of a 384-well plate. Within 2 days, bacteria that have undergone reversion to amino acid prototrophy will form colonies. Products of bacteria metabolism reduce pH of the medium, changing the color of wells from purple to yellow.
# The test procedure provided by Xenometrix and described in detail elsewhere was followed. Bacterial strains were grown overnight (14–16 h) in exposure medium in a shaker incubator and then exposed to KM-568 in 24-well plates for 90 min at 37 °C with agitation. Final KM-568 concentrations in the assay were 0.1, 0.2, and 0.5 mM. After preincubation, the cultures were diluted in the indicator medium and the contents of each 24-well culture were transferred to 48 wells on a 384-well plate and incubated further for 48 h at 37 °C without agitation. After the exposure, the number of wells containing bacteria was scored for yellow wells. […] Pure DMSO was used as a negative control. All doses were performed in triplicate.
# The fold increase of revertants relative to the solvent control was determined by dividing the mean number of positive wells at each dose by the solvent control at baseline. The solvent control at baseline was calculated as the mean number of positive wells in the solvent control plus one standard deviation (SD). When an increase of more than twofold relative to the baseline at more than one dose with a dose–response was observed, the sample was classified as positive, whereas when no response > 2 times the baseline and no dose–response was stated, the sample was classified as negative.
# [2] = tested on: mice; assay: 6-Hz psychomotor seizure model (32 mA, 44 mA); assay type: in vivo; conditions: for ED50: Mus musculus, ip, 95% confidence interval in parentheses; for 6-Hz (32 mA) Results (protected/tested animals) / 6-Hz (44 mA) Results (protected/tested animals): i.p.
# Description: The test was performed after 0.25 h (for 32 mA current) or 0.5 h (for 44 mA current) of i.p. administration of compound KM-568. The groups of 8 animals were challenged for a single dose of the tested compounds. In addition, 0.2 ms pulses of electric current at 6 Hz and 32 mA or 44 mA were delivered for 3 sec via corneal electrodes. The mouse was released into an observation cage immediately after stimulation. The electric stimulation in a 6-Hz test causes a minimal clonic phase followed by stereotyped, automatic behaviors. The seizure activity can be described as stun, forelimb clonus, twitching of the vibrissae, and Straub tail. The protection was scored if the mouse resumed its normal activity within 10 sec from the stimulation.
# [3] = tested on: rat cerebral cortex NMDA receptor; assay: NMDA receptor radioligand binding ([3H]CGP39653); conditions: 10 µM; antagonist radioligand
# Description: (§1) In order to identify molecular mechanism of action, KM-568 was tested at 10 µM in three radioligand binding assays: rat cerebral cortex GABA receptor non-selective agonist radioligand, AMPA (α-amino-3-hydroxy-5-methyl-4-isoxazolepropionic acid) receptor agonist radioligand, and NMDA (N-methyl-D-aspartate) receptor antagonist radioligand as well as one functional assay involving a human recombinant TRPV1 receptor expressed in CHO cells (agonist and antagonist effects).
# (§2) Tests were performed by Eurofins Cerep (Eurofins CEREP SA, Celle-Lévescault, France) as a commercial service. In radioligand assays, rat cerebral cortex GABA receptor as well as rat cerebral cortex AMPA (α-amino-3-hydroxy-5-methyl-4-isoxazolepropionic acid) and NMDA (N-methyl-D-aspartate) receptors with 10 nM [^3H]GABA, 8 nM [^3H]AMPA, and 5 nM [^3H]CGP39653, respectively, were used. The results were detected by means of scintillation counting. In functional assays, a human recombinant TRPV1 receptor expressed in Chinese hamster ovary (CHO) cells with 1 µM capsaicin or 30 nM capsazepine were used. Fluorimetry was used as a detection method.
# [4] = tested on: rats; assay: Maximal electroshock test (MES), rats; assay type: in vivo; conditions: for ED50: Rattus norvegicus, 95% confidence interval in parentheses
# Description: In vivo activity testing was performed at the Epilepsy Branch, National Institute of Neurological Disorders and Stroke, National Institutes of Health (NIH, Bethesda, USA) within the Anticonvulsant Screening Program (ASP) (currently known as the Epilepsy Therapy Screening Program (ETSP)). Pharmacological evaluation was planned and performed in accordance with the Institute of Laboratory Resources polices on the humane care of laboratory animals and approved by the University of Utah’s Institutional Animal Care and Use Committee (IACUC). All testing protocols were previously published as well as they are available on the NIH website. In the tests, albino mice Carworth Farms No.1 (CF-1) (Charles River), C57/Bl6 mice (Charles River), Frings mice (University of Utah) or male rats Sprague–Dawley (Charles River) were used. All animals were housed, fed, and handled in a manner consistent with the recommendations in the National Council Publication, ‘Guide for the Care and Use of Laboratory animals’ [51]. The tested compound was suspended in 0.5% methylcellulose.
# After intraperitoneal or oral administration of compound KM-568 at certain dose, an alternating current at 60 Hz and 50 mA (mice) or 150 mA (rats) was delivered for 0.2 sec via corneal electrodes to induce seizures. Prior to each stimulation, a drop of 0.5% tetracaine hydrochloride in saline was applied to cornea. Protection was defined as the abolition of the hindlimb tonic extension of the seizures.
# [5] = tested on: rat cerebral cortex AMPA receptor; assay: AMPA receptor radioligand binding ([3H]AMPA); conditions: 10 µM; agonist radioligand
# Description: as §1, §2
structure (smiles),measurement,setting,value
"C[C@H](O)CNC(=O)/C=C/c1ccccc1 [KM-568, S(+)-(2E)-N-(2-hydroxypropyl)-3-phenylprop-2-enamide]","fold induction at 90 min, 0.1 mM",[1],1
same,"fold induction at 90 min, 0.2 mM",[1],0.7
same,"fold induction at 90 min, 0.5 mM",[1],0.7
same,ED50,"[2]; 32 mA, 0.25 h, read-out: 6-Hz (32 mA) ED50",71.5 mg/kg
same,ED50,"[2]; 44 mA, 0.5 h, read-out: 6-Hz (44 mA) ED50",114 mg/kg
same,6-Hz (32 mA) Results (protected/tested animals),"[2]; 50 mg/kg, 0.25 h",1/8
same,6-Hz (44 mA) Results (protected/tested animals),"[2]; 50 mg/kg, 0.5 h",0/8
same,6-Hz (32 mA) Results (protected/tested animals),"[2]; 75 mg/kg, 0.25 h",3/8
same,6-Hz (32 mA) Results (protected/tested animals),"[2]; 87 mg/kg, 0.25 h",7/8
same,6-Hz (44 mA) Results (protected/tested animals),"[2]; 100 mg/kg, 0.5 h",3/8
same,6-Hz (32 mA) Results (protected/tested animals),"[2]; 110 mg/kg, 0.25 h",8/8
same,6-Hz (44 mA) Results (protected/tested animals),"[2]; 150 mg/kg, 0.5 h",6/8
same,6-Hz (44 mA) Results (protected/tested animals),"[2]; 200 mg/kg, 0.5 h",8/8
same,Effect in NMDA receptor radioligand binding assay,[3],No significant effects
same,ED50,"[4]; ip, 0.25 h",27.6 mg/kg
same,ED50,"[4]; po, 1.0 h",30.8 mg/kg
same,MES Results (protected/tested animals),"[4]; i.p., 15 mg/kg, 0.25 h",1/8
same,MES Results (protected/tested animals),"[4]; i.p., 22 mg/kg, 0.25 h",3/8
same,MES Results (protected/tested animals),"[4]; i.p., 30 mg/kg, 0.25 h",5/8
same,MES Results (protected/tested animals),"[4]; i.p., 60 mg/kg, 0.25 h",7/8
same,MES Results (protected/tested animals),"[4]; p.o., 20.0 mg/kg, 1.0 h",1/8
same,MES Results (protected/tested animals),"[4]; p.o., 30.0 mg/kg, 1.0 h",3/8
same,MES Results (protected/tested animals),"[4]; p.o., 35.0 mg/kg, 1.0 h",5/8
same,MES Results (protected/tested animals),"[4]; p.o., 40.0 mg/kg, 1.0 h",7/8
same,Effect in AMPA receptor radioligand binding assay,[5],No significant effects

# Source: publication PMC7352759, “S(+)-(2E)-N-(2-Hydroxypropyl)-3-Phenylprop-2-Enamide (KM-568): A Novel Cinnamamide Derivative with Anticonvulsant Activity in Animal Models of Seizures and Epilepsy” (International Journal of Molecular Sciences, 2020)
